Experimental data reported in patent US20250003877A1, “Silyl Bridged Dyes” (priority 2021, published 2025).
Where two headings read alike, the source gives them in different places.

Experiments:
[1] = for ϕ (quantum yield): pH 7.4
[2] = literature values; cited from earlier work
[3] = KL-Z lactone-zwitterion equilibrium; format: physicochemical; conditions: 1:1 v/v dioxane:water
[4] = system: HaloTag®-GFP-expressing HeLa cells; test: No-wash live cell imaging of HaloTag-expressing cells with a Si-bridge dye; format: cell-based; conditions: 200 nM dye, 15 min, 37° C., HeLa transfected with pHaloTag®-EGFP
Protocol: HeLa cells were seeded in 35 mm glass bottom dishes (Cellvis, catalog no. D35-28-O—N), and transfected with pHaloTag®-EGFP (Addgene #86629). Transient transfections were performed using Lipofectamine 2000 (Invitrogen, catalog no. 1168019) following the manufacturer's instructions. HeLa cell labeling and confocal imaging were performed 24 hr after transfection.
Labeling with JF646-HaloTag® ligand (Promega) and new dyes containing HaloTag® ligands were performed following the manufacturer's instructions. Briefly, cells were incubated with 200 nM dye in DMEM for 15 min at 37° C. Subsequently, images were obtained on a Leica SP-8 Confocal Microscope (SCOPE core facility, UMass Medical School), using a 40×1.15 Oil DIC objective. EGFP was excited with the Argon (488 nm) laser at a 15% intensity and detected through a 505-530 band pass filter and a pinhole set to 53.12 μm. Dyes fluorescing in the Cy5 channel were excited with the HeNe (633 nm) laser at a 15% intensity and detected through a 640-615 band pass filter and […] pinhole. Image analysis was performed using Leica LAS X SP8 software and ImageJ software.

[5] = spirolactone dyes, table title says PBS, text (b560-b564) says maximal ε when ring-opened in EtOH/0.1% TFA
[6] = spirolactone dyes, ϕ in PBS × ε in EtOH/0.1% TFA

Structure (SMILES): Cc1ccccc1C1=c2cc3c(cc2[Si](C)(C)c2cc4c(cc21)CCCN4C)=[N+](C)CCC3 [Compound 016, 1,11,13,13-Tetramethyl-6-(o-tolyl)-2,3,4,8,9,10,11,13-octahydrosilino[3,2-g:5,6-g′]diquinolin-1-ium, reference compound]
- Brightness (ϕ × ε) [1]: 41,850
- Em (nm) [1]: 692 nm
- Ex (nm) [1]: 674 nm
- ε (M^−1 cm^−1) [1]: 135,000 M^−1 cm^−1
- ϕ (quantum yield) ([1]; PBS): 0.31
- emission wavelength, literature value [2]: 689 nm
- excitation wavelength, literature value [2]: 674 nm
- ε, literature value [2]: 1.3×10^5
- ϕ, literature value [2]: 0.35

Structure (SMILES): C[Si]1(C)c2cc(N3CCC3)ccc2C2(OC(=O)c3ccccc32)c2ccc(N3CCC3)cc21 [Compound 031, 3,7-Di(azetidin-1-yl)-5,5-dimethyl-3′H,5H-spiro[dibenzo[b,e]siline-10,1′-isobenzofuran]-3′-one, reference compound]
- KL-Z lactone-zwitterion equilibrium value [3]: 0.0034
- Em (nm) ([1]; PBS): 664 nm
- Ex (nm) ([1]; PBS): 646 nm
- ϕ (quantum yield) ([1]; PBS): 0.45
- ε (M^−1 cm^−1) [1, 5]: 156,000 M^−1 cm^−1
- Brightness (ϕ × ε) [1, 6]: 70,200

Structure (SMILES): C[Si]1(C)c2cc(N3CCC3)ccc2C2(OC(=O)c3ccc(C(=O)NCCOCCOCCCCCCCl)cc32)c2ccc(N3CCC3)cc21 [JF646-HaloTag® ligand]
- fluorescence contrast / background / localisation in cells [4]: high contrast images

Structure (SMILES): Cc1ccccc1C1=C2C=CC(=[N+](C)C)C=C2[Si](C)(C)c2cc(N(C)C)ccc21 [Compound 001, N-(7-(Dimethylamino)-5,5-dimethyl-10-(o-tolyl)dibenzo[b,e]silin-3(5H)-ylidene)-N-methylmethanaminium, reference compound]
- Brightness (ϕ × ε) ([1]; PBS): 43,102
- Em (nm) ([1]; PBS): 663 nm
- Ex (nm) ([1]; PBS): 648 nm
- ε (M^−1 cm^−1) ([1]; PBS): 126,400 M^−1 cm^−1
- ϕ (quantum yield) ([1]; PBS): 0.34
- emission wavelength, literature value [2]: 658 nm
- excitation wavelength, literature value [2]: 644 nm
- ε, literature value [2]: 1.1×10^5
- ϕ, literature value [2]: 0.31

Structure (SMILES): C=C[Si]1(C=C)c2cc(N3CCC3)ccc2C2(OC(=O)c3ccccc32)c2ccc(N3CCC3)cc21 [Compound 034, 3,7-Di(azetidin-1-yl)-5,5-divinyl-3′H,5H-spiro[dibenzo[b,e]siline-10,1′-isobenzofuran]-3′-one]
- KL-Z lactone-zwitterion equilibrium value [3]: 0.00125
- extinction coefficient (maximum) in EtOH/0.1% TFA ([1]; EtOH/0.1% TFA): 80,000 M−1 cm−1
- Em (nm) ([1]; SDS): 675 nm
- Ex (nm) ([1]; SDS): 656 nm
- extinction coefficient in anhydrous EtOH/0.1% TFA ([1]; anhydrous EtOH/0.1% TFA): ~144 000 M−1 cm-1
- ε (M^−1 cm^−1) [1, 5]: 80,000 M^−1 cm^−1

Structure (SMILES): COc1cccc(OC)c1C1=C2C=CC(=[N+](C)C)C=C2[Si@](C)(CCCSCCOCCOCCOCCOCCCCCCCl)c2cc(N(C)C)ccc21 [Compound 049, N-(5-(22-Chloro-7,10,13,16-tetraoxa-4-thiadocosyl)-10-(2,6-dimethoxyphenyl)-7-(dimethylamino)-5-methyldibenzo[b,e]silin-3(5H)-ylidene)-N-methylmethanaminium]
- fluorescence contrast / background / localisation in cells [4]: only stained mitochondria
- labeling of HaloTag®-expressing cells [4]: did not label HaloTag®-expressing cells

Structure (SMILES): CN(C)c1ccc2c(c1)[Si@](C)(CCCSCC(=O)NCCOCCOCCCCCCCl)c1cc(N(C)C)ccc1[C@]21OC(=O)c2ccccc21 [Compound 044, 2-((3-((5s,10s)-3,7-Bis(dimethylamino)-5-methyl-3′-oxo-3′H,5H-spiro[dibenzo[b,e]siline-10,1′-isobenzofuran]-5-yl)propyl)thio)-N-(2-(2-((6-chlorohexyl)oxy)ethoxy)ethyl)acetamide]
- fluorescence contrast / background / localisation in cells [4]: poorly fluorescent in all cells
- labeling of HaloTag®-expressing cells [4]: did not label HaloTag®-expressing cells

Structure (SMILES): CN(C)c1ccc2c(c1)[Si](C)(C)c1cc(N(C)C)ccc1C21OC(=O)c2ccccc21 [Compound 032, 3,7-Bis(dimethylamino)-5,5-dimethyl-3′H,5H-spiro[dibenzo[b,e]siline-10,1′-isobenzofuran]-3′-one, reference compound]
- KL-Z lactone-zwitterion equilibrium value [3]: 0.002
- Em (nm) ([1]; PBS): 667 nm
- Ex (nm) ([1]; PBS): 648 nm
- ϕ (quantum yield) ([1]; PBS): 0.38
- ε (M^−1 cm^−1) [1, 5]: 130,000 M^−1 cm^−1
- Brightness (ϕ × ε) [1, 6]: 49,400

Structure (SMILES): CN(C)c1ccc2c(c1)[Si@](C)(CCCSCCOCCOCCOCCOCCCCCCCl)c1cc(N(C)C)ccc1[C@@]21OC(=O)c2ccccc21 [Compound 051, (5r,10r)-5-(22-Chloro-7,10,13,16-tetraoxa-4-thiadocosyl)-3,7-bis(dimethylamino)-5-methyl-3′H,5H-spiro[dibenzo[b,e]siline-10,1′-isobenzofuran]-3′-one]
- fluorescence contrast / background / localisation in cells [4]: significant background
- labeling of HaloTag®-expressing cells [4]: labeled HaloTag®-expressing cells

Structure (SMILES): CN(C)c1ccc2c(c1)[Si@](C)(CCCSCCOCCOCCOCCOCCCCCCCl)c1cc(N(C)C)ccc1[C@]21OC(=O)c2ccccc21 [Compound 050, (5s,10s)-5-(22-Chloro-7,10,13,16-tetraoxa-4-thiadocosyl)-3,7-bis(dimethylamino)-5-methyl-3′H,5H-spiro[dibenzo[b,e]siline-10,1′-isobenzofuran]-3′-one]
- fluorescence contrast / background / localisation in cells [4]: high background
- labeling of HaloTag®-expressing cells [4]: did not label HaloTag®-expressing cells

Structure (SMILES): Cc1ccccc1C1=c2cc3c(cc2[Si](C)(C)c2cc4c(cc21)CCN4C)=[N+](C)CC3 [Compound 020, 1,9,11,11-Tetramethyl-5-(o-tolyl)-2,3,7,8,9,11-hexahydrosilino[3,2-f:5,6-f]diindol-1-ium, reference compound]
- Brightness (ϕ × ε) [1]: 17,000
- Em (nm) [1]: 715 nm
- Ex (nm) [1]: 690 nm
- ε (M^−1 cm^−1) [1]: 100,000 M^−1 cm^−1
- ϕ (quantum yield) ([1]; PBS): 0.17
- emission wavelength, literature value [2]: 712 nm
- excitation wavelength, literature value [2]: 691 nm
- ε, literature value [2]: 1.0×10^5
- ϕ, literature value [2]: 0.12

Structure (SMILES): CN(C)c1ccc2c(c1)[Si@](C)(CCCSCC(=O)NCCOCCOCCCCCCCl)c1cc(N(C)C)ccc1[C@@]21OC(=O)c2ccccc21 [Compound 045, 2-((3-((5r,10r)-3,7-Bis(dimethylamino)-5-methyl-3′-oxo-3′H,5H-spiro[dibenzo[b,e]siline-10,1′-isobenzofuran]-5-yl)propyl)thio)-N-(2-(2-((6-chlorohexyl)oxy)ethoxy)ethyl)acetamide]
- fluorescence contrast / background / localisation in cells [4]: bright high contrast images that correlated strongly to GFP expression

Structure (SMILES): CCOC(=O)CSCCC[Si@]1(C)c2cc(N(C)C)ccc2[C@]2(OC(=O)c3ccccc32)c2ccc(N(C)C)cc21 [Compound 042, Ethyl 2-((3-((5s,10s)-3,7-bis(dimethylamino)-5-methyl-3′-oxo-3′H,5H-spiro[dibenzo[b,e]siline-10,1′-isobenzofuran]-5-yl)propyl)thio)acetate]
- Em (nm) ([1]; PBS): 665 nm
- Ex (nm) ([1]; PBS): 645 nm
- ϕ (quantum yield) ([1]; PBS): 0.45
- ε (M^−1 cm^−1) [1, 5]: 145,800 M^−1 cm^−1

Structure (SMILES): CN(C)c1ccc2c(c1)[Si@](C)(CCCN=[N+]=[N-])c1cc(N(C)C)ccc1[C@@]21OC(=O)c2ccccc21 [Compound 054, (5r,10r)-5-(3-Azidopropyl)-3,7-bis(dimethylamino)-5-methyl-3′H,5H-spiro[dibenzo[b,e]siline-10,1′-isobenzofuran]-3′-one]
- Em (nm) ([1]; PBS): 665 nm
- Ex (nm) ([1]; PBS): 645 nm
- ϕ (quantum yield) ([1]; PBS): 0.44
- ε (M^−1 cm^−1) [1, 5]: 218,400 M^−1 cm^−1
